Experimental data as given in US12577206B2 (BRISTOL-MYERS SQUIBB COMPANY, priority 2020, dated 2026).

Assays:
human FPR2 = target: T1, human FPR2 (Homo sapiens, UniProt P25090); test: FPR2 cyclic adenosine monophosphate (cAMP) assay; assay type: cell-based; conditions: CHO cells overexpressing human FPR2; forskolin 5 μM; inhibition of cAMP production; HTRF; read-out: hFPR2 cAMP2 EC50
T1 sequence (P25090 1-351): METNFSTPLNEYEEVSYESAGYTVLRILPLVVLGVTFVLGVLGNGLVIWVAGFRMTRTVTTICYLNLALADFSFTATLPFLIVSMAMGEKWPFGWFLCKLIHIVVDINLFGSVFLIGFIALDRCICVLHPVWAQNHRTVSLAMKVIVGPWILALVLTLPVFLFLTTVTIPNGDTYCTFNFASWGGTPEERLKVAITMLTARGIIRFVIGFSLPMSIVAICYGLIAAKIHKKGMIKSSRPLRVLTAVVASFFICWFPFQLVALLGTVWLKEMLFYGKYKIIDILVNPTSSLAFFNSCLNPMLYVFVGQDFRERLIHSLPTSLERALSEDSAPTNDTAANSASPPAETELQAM
Text: (§1) N-formyl peptide receptors (FPRs) are a family of chemo attractant receptors that facilitate leukocyte response during inflammation. FPRs belong to the seven-transmembrane G protein-coupled receptor superfamily and are linked to inhibitory G-proteins (Gi). Three family members (FPR1, FPR2 and FPR3) have been identified in humans and are predominantly found in myeloid cells with varied distribution and have also been reported in multiple organs and tissues. After agonist binding, the FPRs activate a multitude of physiological pathways, such as intra cellular signaling transduction, Ca^2+ mobilization and transcription. The family interacts with a diverse set of ligands that includes proteins, polypeptides and fatty acid metabolites which activate both pro-inflammatory and pro-resolution downstream responses. FPR2 and FPR1 Cyclic Adenosine Monophosphate (cAMP) Assays were used to measure the in vitro activity of the compounds disclosed in this application.
(§2) FPR2 and FPR1 Cyclic Adenosine Monophosphate (cAMP) Assays. A mixture of forskolin (5 μM final for FPR2 or 10 μM final for FPR1) and IBMX (200 μM final) were added to 384-well Proxiplates (Perkin-Elmer) pre-dotted with test compounds in DMSO (1% final) at final concentrations in the range of 0.020 nM to 100 μM. Chinese Hamster Ovary cells (CHO) overexpressing human FPR1 or human FPR2 receptors were cultured in F-12 (Ham's) medium supplemented with 10% qualified FBS, 250 μg/mL zeocin and 300 μg/mL hygromycin (Life Technologies). Reactions were initiated by adding 2,000 human FPR2 cells per well or 4,000 human FPR1 cells per well in Dulbecco's PBS (with calcium and magnesium) (Life Technologies) supplemented with 0.1% BSA (Perkin-Elmer). The reaction mixtures were incubated for 30 min at rt. The level of intracellular cAMP was determined using the HTRF HiRange cAMP assay reagent kit (Cisbio) according to manufacturer's instruction. Solutions of cryptate conjugated anti-cAMP and d2 flurorophore-labeled cAMP were made in a supplied lysis buffer separately. Upon completion of the reaction, the cells were lysed with equal volume of the d2-cAMP solution and anti-cAMP solution. […] The potency and activity of a compound to inhibit cAMP production was then determined by fitting to a 4-parametric logistic equation from a plot of cAMP level versus compound concentrations.

human FPR1 = target: T2, human FPR1 (Homo sapiens, UniProt P21462); test: FPR1 cyclic adenosine monophosphate (cAMP) assay; assay type: cell-based; conditions: CHO cells overexpressing human FPR1; forskolin 10 μM; inhibition of cAMP production; HTRF; read-out: hFPR1 cAMP2 EC50
T2 sequence (P21462 1-350): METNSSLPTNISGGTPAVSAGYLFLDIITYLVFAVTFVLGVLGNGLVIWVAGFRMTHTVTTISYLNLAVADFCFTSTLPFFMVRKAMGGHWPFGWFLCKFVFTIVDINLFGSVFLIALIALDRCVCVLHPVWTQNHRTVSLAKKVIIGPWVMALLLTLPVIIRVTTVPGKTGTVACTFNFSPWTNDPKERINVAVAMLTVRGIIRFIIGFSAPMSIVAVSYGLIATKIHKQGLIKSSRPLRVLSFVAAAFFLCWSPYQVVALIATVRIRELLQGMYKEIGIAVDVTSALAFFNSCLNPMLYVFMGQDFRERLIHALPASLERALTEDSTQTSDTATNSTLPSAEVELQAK
Text: as §1, §2

An EC50 (human FPR2) of 8 nM and an EC50 (human FPR1) of 6500 nM were found for COc1cc(F)c(-c2c(NC(=O)c3ccc(OC(F)(F)F)cc3)c(=O)n(-c3ncccc3F)n2C)c(F)c1 [Example 32, N-[5-(2,6-difluoro-4-methoxyphenyl)-2-(3-fluoropyridin-2-yl)-1-methyl-3-oxo-2,3-dihydro-1H-pyrazol-4-yl]-4-(trifluoromethoxy)benzamide] in this work.

An EC50 (human FPR2) of 4 nM and an EC50 (human FPR1) of 1900 nM were found for COc1cc(F)c(-c2c(NC(=O)c3ccc(OC(F)F)cc3)c(=O)n(-c3cccc(Cl)c3Cl)n2C)c(F)c1 [Example 34, N-[2-(2,3-dichlorophenyl)-5-(2,6-difluoro-4-methoxyphenyl)-1-methyl-3-oxo-2,3-dihydro-1H-pyrazol-4-yl]-4-(difluoromethoxy)benzamide] in this work.

An EC50 (human FPR2) of 6 nM and an EC50 (human FPR1) of 1700 nM were found for COc1cc(F)c(-c2c(NC(=O)c3ccc(OC(F)(F)F)cc3)c(=O)n(-c3cccc(Cl)c3Cl)n2C)c(F)c1 [Example 35, N-[2-(2,3-dichlorophenyl)-5-(2,6-difluoro-4-methoxyphenyl)-1-methyl-3-oxo-2,3-dihydro-1H-pyrazol-4-yl]-4-(trifluoromethoxy)benzamide] in this work.

An EC50 (human FPR2) of 9 nM and an EC50 (human FPR1) of 270 nM were found for COc1cc(F)c(-c2c(NC(=O)c3ccc(Cl)cc3)c(=O)n(-c3ccc(Cl)cc3)n2C)c(F)c1 [Example 36, 4-chloro-N-[2-(4-chlorophenyl)-5-(2,6-difluoro-4-methoxyphenyl)-1-methyl-3-oxo-2,3-dihydro-1H-pyrazol-4-yl]benzamide] in this work.

With COc1cc(F)c(-c2c(NC(=O)c3ccc(OC(F)F)cc3)c(=O)n(-c3cccc(Cl)c3C)n2C)c(F)c1 [Example 37, N-[2-(3-chloro-2-methylphenyl)-5-(2,6-difluoro-4-methoxyphenyl)-1-methyl-3-oxo-2,3-dihydro-1H-pyrazol-4-yl]-4-(difluoromethoxy)benzamide] the EC50 (human FPR2) was 19 nM and the EC50 (human FPR1) was > 10000 nM.

An EC50 (human FPR2) of 14 nM and an EC50 (human FPR1) of 3000 nM were found for COc1cc(F)c(-c2c(NC(=O)c3ccc(OC(F)F)cc3)c(=O)n(-c3cccc(Cl)n3)n2C)c(F)c1 [Example 39, N-[2-(6-chloropyridin-2-yl)-5-(2,6-difluoro-4-methoxyphenyl)-1-methyl-3-oxo-2,3-dihydro-1H-pyrazol-4-yl]-4-(difluoromethoxy)benzamide] in this work.

An EC50 (human FPR2) of 7 nM and an EC50 (human FPR1) of 2100 nM were found for COc1cc(F)c(-c2c(NC(=O)c3ccc(OC(F)(F)F)cc3)c(=O)n(-c3ncccc3Cl)n2C)c(F)c1 [Example 41, N-[2-(3-chloropyridin-2-yl)-5-(2,6-difluoro-4-methoxyphenyl)-1-methyl-3-oxo-2,3-dihydro-1H-pyrazol-4-yl]-4-(trifluoromethoxy)benzamide] in this work.

In the case of COc1cc(F)c(-c2c(NC(=O)c3ccc(Cl)cc3)c(=O)n(-c3ccc(Cl)cn3)n2C)c(F)c1 [Example 43, 4-chloro-N-[2-(5-chloropyridin-2-yl)-5-(2,6-difluoro-4-methoxyphenyl)-1-methyl-3-oxo-2,3-dihydro-1H-pyrazol-4-yl]benzamide], the EC50 (human FPR2) is reported as 41 nM and the EC50 (human FPR1) is reported as > 10000 nM.

In the case of COc1cc(F)c(-c2c(NC(=O)c3ccc(OC(F)F)cc3)c(=O)n(-c3ccccn3)n2C)c(F)c1 [Example 44, N-[5-(2,6-difluoro-4-methoxyphenyl)-1-methyl-3-oxo-2-(pyridin-2-yl)-2,3-dihydro-1H-pyrazol-4-yl]-4-(difluoromethoxy)benzamide], the EC50 (human FPR2) is reported as 16 nM and the EC50 (human FPR1) is reported as > 10000 nM.

An EC50 (human FPR2) of 6 nM and an EC50 (human FPR1) of 2800 nM were found for COc1cc(F)c(-c2c(NC(=O)c3ccc(OC(F)F)cc3)c(=O)n(-c3cccc(C4CC4)n3)n2C)c(F)c1 [Example 45, N-[2-(6-cyclopropylpyridin-2-yl)-5-(2,6-difluoro-4-methoxyphenyl)-1-methyl-3-oxo-2,3-dihydro-1H-pyrazol-4-yl]-4-(difluoromethoxy)benzamide] in this work.

For COc1cc(F)c(-c2c(NC(=O)c3ccc(OC(F)F)cc3)c(=O)n(-c3cccc(C)n3)n2C)c(F)c1 [Example 46, N-[5-(2,6-difluoro-4-methoxyphenyl)-1-methyl-2-(6-methylpyridin-2-yl)-3-oxo-2,3-dihydro-1H-pyrazol-4-yl]-4-(difluoromethoxy)benzamide], the EC50 (human FPR2) was 22 nM and the EC50 (human FPR1) was > 10000 nM.

An EC50 (human FPR2) of 6 nM and an EC50 (human FPR1) of 460 nM were found for COc1cc(F)c(-c2c(NC(=O)c3ccc(OC(F)F)cc3)c(=O)n(-c3ccc(C4CC4)cn3)n2C)c(F)c1 [Example 47, N-[2-(5-cyclopropylpyridin-2-yl)-5-(2,6-difluoro-4-methoxyphenyl)-1-methyl-3-oxo-2,3-dihydro-1H-pyrazol-4-yl]-4-(difluoromethoxy)benzamide] in this work.

In the case of COc1cc(F)c(-c2c(NC(=O)c3ccc(Cl)cc3)c(=O)n(-c3ccc(C)cn3)n2C)c(F)c1 [Example 48, 4-chloro-N-[5-(2,6-difluoro-4-methoxyphenyl)-1-methyl-2-(5-methylpyridin-2-yl)-3-oxo-2,3-dihydro-1H-pyrazol-4-yl]benzamide], the EC50 (human FPR2) is reported as 43 nM and the EC50 (human FPR1) is reported as > 10000 nM.

An EC50 (human FPR2) of 55 nM and an EC50 (human FPR1) of 6800 nM were found for COc1cc(F)c(-c2c(NC(=O)c3ccc(OC(F)F)cc3)c(=O)n(-c3ccc(C)cn3)n2C)c(F)c1 [Example 49, N-[5-(2,6-difluoro-4-methoxyphenyl)-1-methyl-2-(5-methylpyridin-2-yl)-3-oxo-2,3-dihydro-1H-pyrazol-4-yl]-4-(difluoromethoxy)benzamide] in this work.

An EC50 (human FPR2) of 18 nM and an EC50 (human FPR1) of 1300 nM were found for COc1cc(F)c(-c2c(NC(=O)c3ccc(OC(F)(F)F)cc3)c(=O)n(-c3ccc(C)cn3)n2C)c(F)c1 [Example 50, N-[5-(2,6-difluoro-4-methoxyphenyl)-1-methyl-2-(5-methylpyridin-2-yl)-3-oxo-2,3-dihydro-1H-pyrazol-4-yl]-4-(trifluoromethoxy)benzamide] in this work.

An EC50 (human FPR2) of 18 nM and an EC50 (human FPR1) of 1100 nM were found for COc1cc(F)c(-c2c(NC(=O)c3ccc(OC(F)F)cc3)c(=O)n(-c3ccc(-c4ccccc4)cn3)n2C)c(F)c1 [Example 51, N-[5-(2,6-difluoro-4-methoxyphenyl)-1-methyl-3-oxo-2-(5-phenylpyridin-2-yl)-2,3-dihydro-1H-pyrazol-4-yl]-4-(difluoromethoxy)benzamide] in this work.

An EC50 (human FPR2) of 9 nM and an EC50 (human FPR1) of 190 nM were found for COc1cc(F)c(-c2c(NC(=O)c3ccc(OC(F)(F)F)cc3)c(=O)n(-c3ccc(C4CC4)cn3)n2C)c(F)c1 [Example 52, N-[2-(5-cyclopropylpyridin-2-yl)-5-(2,6-difluoro-4-methoxyphenyl)-1-methyl-3-oxo-2,3-dihydro-1H-pyrazol-4-yl]-4-(trifluoromethoxy)benzamide] in this work.

An EC50 (human FPR2) of 59 nM and an EC50 (human FPR1) of 610 nM were found for COc1cc(F)c(-c2c(NC(=O)c3ccc(C4CC4)cc3)c(=O)n(-c3ccc(C4CC4)cn3)n2C)c(F)c1 [Example 53, 4-cyclopropyl-N-[2-(5-cyclopropylpyridin-2-yl)-5-(2,6-difluoro-4-methoxyphenyl)-1-methyl-3-oxo-2,3-dihydro-1H-pyrazol-4-yl]benzamide] in this work.

An EC50 (human FPR2) of 19 nM and an EC50 (human FPR1) of 3300 nM were found for COc1cc(F)c(-c2c(NC(=O)c3ccc(OC(F)F)cc3)c(=O)n(-c3ccc(C#N)cn3)n2C)c(F)c1 [Example 54, N-[2-(5-cyanopyridin-2-yl)-5-(2,6-difluoro-4-methoxyphenyl)-1-methyl-3-oxo-2,3-dihydro-1H-pyrazol-4-yl]-4-(difluoromethoxy)benzamide] in this work.
